How the values were obtained:
[1] = system: ATP DAs on ACE microarray (Cy3 ATP DNA Aptamer) (DNA, aptamer) TCACTGACCTGGGGGAGTATTGCGGAGGAAGGT; test: surface fluorescence loss (aptamer release), non-equilibrium; conditions: immobilised ACE microarray; negative control ligand; no induced fit binding
[2] = system: 5′Q-5C:12 DA (Cy3 ATP DNA Aptamer with 5′Q-5C:12 ACE) (DNA, aptamer) TCACTGACCTGGGGGAGTATTGCGGAGGAAGGT; test: solution FRET (Cy3/BHQ-2) equilibrium titration; conditions: 300 mM Na+, 5 mM Mg2+; apparent; 25 °C; 200 nM aptamer; quencher ACE 5′Q-5C:12 displaced, Q:F 1:1; n = 1.3
[3] = system: 5′Q-5C:11 DA (Cy3 ATP DNA Aptamer with 5′Q-5C:11 ACE) (DNA, aptamer) TCACTGACCTGGGGGAGTATTGCGGAGGAAGGT; test: solution FRET (Cy3/BHQ-2) equilibrium titration; conditions: 300 mM Na+, 5 mM Mg2+; apparent; 25 °C; 200 nM aptamer; quencher ACE 5′Q-5C:11 displaced, Q:F 1:1; n = 1.2
[4] = system: 5′Q-5C:10 DA (Cy3 ATP DNA Aptamer with 5′Q-5C:10 ACE) (DNA, aptamer) TCACTGACCTGGGGGAGTATTGCGGAGGAAGGT; test: solution FRET (Cy3/BHQ-2) equilibrium titration; conditions: 300 mM Na+, 5 mM Mg2+; apparent; 25 °C; 200 nM aptamer; quencher ACE 5′Q-5C:10 displaced, Q:F 1:1; n = 1.0
[5] = system: 5′Q-5C:9 DA (Cy3 ATP DNA Aptamer with 5′Q-5C:9 ACE) (DNA, aptamer) TCACTGACCTGGGGGAGTATTGCGGAGGAAGGT; test: solution FRET (Cy3/BHQ-2) equilibrium titration; conditions: 300 mM Na+, 5 mM Mg2+; apparent; 25 °C; 200 nM aptamer; quencher ACE 5′Q-5C:9 displaced, Q:F 1:1; n = 0.7
[6] = system: 5′Q-2T:9 DA (Cy3 ATP DNA Aptamer with 5′Q-2T:9 ACE) (DNA, aptamer) TCACTGACCTGGGGGAGTATTGCGGAGGAAGGT; test: solution FRET (Cy3/BHQ-2) equilibrium titration; conditions: 300 mM Na+, 5 mM Mg2+; apparent; 25 °C; 200 nM aptamer; quencher ACE 5′Q-2T:9 displaced, Q:F 1:1; n = 1.3

| binding [1] | Kd,Exp Obs [2] [µM] | Kd,Exp Obs [3] [µM] | Kd,Exp Obs [4] [µM] | Kd,Exp Obs [5] [µM] | Kd,Exp Obs [6] [µM] | Compound |
| --- | --- | --- | --- | --- | --- | --- |
| no | – | – | – | – | – | Nc1nc2c(ncn2[C@@H]2O[C@H](COP(=O)(O)OP(=O)(O)OP(=O)(O)O)[C@@H](O)[C@H]2O)c(=O)[nH]1 |
| – | 1370 | 663 | 163 | 4700 | 85 | Nc1ncnc2c1ncn2[C@@H]1O[C@H](COP(=O)(O)OP(=O)(O)OP(=O)(O)O)[C@@H](O)[C@H]1O |

— publication PMC5408566 (2016)
